Data taken from US20060069132A1, “Azolecarboxamide herbicides” (priority 2004, published 2006).

Assays:
[1] = test system: barnyardgrass; experiment: Test A pre-/postemergence herbicide test; type: in vivo, Echinochloa crus-galli
Procedure, shortened: (§1)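 Visual injury scores on a 0–100 scale (100 = complete control) taken about ten days post-treatment in greenhouse against untreated controls; dash means no result. Treatments: preemergence soil spray and postemergence spray to runoff on one- to two-leaf plants 2 to 10 cm tall, surfactant-containing formulation.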

[2] = test system: large crabgrass; experiment: Test A pre-/postemergence herbicide test; type: in vivo, Digitaria sanguinalis
Procedure, shortened: as §1

[3] = test system: giant foxtail; experiment: Test A pre-/postemergence herbicide test; type: in vivo, Setaria faberi
Procedure, shortened: as §1

[4] = test system: morningglory; experiment: Test A pre-/postemergence herbicide test; type: in vivo, Ipomoea spp.
Procedure, shortened: as §1

[5] = test system: redroot pigweed; experiment: Test A pre-/postemergence herbicide test; type: in vivo, Amaranthus retroflexus
Procedure, shortened: as §1

[6] = test system: velvetleaf; experiment: Test A pre-/postemergence herbicide test; type: in vivo, Abutilon theophrasti
Procedure, shortened: as §1

[7] = test system: barnyardgrass; experiment: Test B pre-/postemergence herbicide test; type: in vivo, Echinochloa crus-galli; conditions: for Barnyardgrass plant response rating: postemergence, visual rating, scale 0 (no effect) to 100 (complete control)
Procedure, shortened: (§2)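 Species tested were Echinochloa crus-galli, Ipomoea coccinea, Xanthium strumarium and Oryza sativa, treated both before emergence and at the 1- to 4-leaf stage; rice and barnyardgrass were also tested under flooding at 2 leaves. Greenhouse incubation lasted 13–15 days before visual 0–100 scoring.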

[8] = test system: Surinam grass; experiment: Test B pre-/postemergence herbicide test; type: in vivo, Urochloa decumbens; conditions: for Surinam Grass plant response rating: postemergence, visual rating, scale 0 (no effect) to 100 (complete control)
Procedure, shortened: (§3)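 Test chemicals in a non-phytotoxic solvent mixture with surfactant were applied preemergence to seeded species and postemergence to plants 2-18 cm tall (1- to 4-leaf stage); rice and barnyardgrass were also tested in a flooded paddy at the 2-leaf stage. Visual rating versus controls after 13-15 days in greenhouse, scale 0 (no effect) to 100 (complete control).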

[9] = test system: cocklebur; experiment: Test B pre-/postemergence herbicide test; type: in vivo, Xanthium strumarium; conditions: for Cocklebur plant response rating: postemergence, visual rating, scale 0 (no effect) to 100 (complete control)
Procedure, shortened: as §2

[10] = test system: corn; experiment: Test B pre-/postemergence herbicide test; type: in vivo, Zea mays; conditions: for Corn plant response rating: postemergence, visual rating, scale 0 (no effect) to 100 (complete control)
Procedure, shortened: as §3

[11] = test system: large crabgrass; experiment: Test B pre-/postemergence herbicide test; type: in vivo, Digitaria sanguinalis; conditions: for Crabgrass, Large plant response rating: postemergence, visual rating, scale 0 (no effect) to 100 (complete control)
Procedure, shortened: as §3

[12] = test system: giant foxtail; experiment: Test B pre-/postemergence herbicide test; type: in vivo, Setaria faberi; conditions: for Foxtail, Giant plant response rating: postemergence, visual rating, scale 0 (no effect) to 100 (complete control)
Procedure, shortened: as §3

[13] = test system: lambsquarters; experiment: Test B pre-/postemergence herbicide test; type: in vivo, Chenopodium album; conditions: for Lambsquarters plant response rating: postemergence, visual rating, scale 0 (no effect) to 100 (complete control)
Procedure, shortened: as §3

[14] = test system: morningglory; experiment: Test B pre-/postemergence herbicide test; type: in vivo, Ipomoea coccinea; conditions: for Morningglory plant response rating: postemergence, visual rating, scale 0 (no effect) to 100 (complete control)
Procedure, shortened: as §2

[15] = test system: pigweed; experiment: Test B pre-/postemergence herbicide test; type: in vivo, Amaranthus retroflexus; conditions: for Pigweed plant response rating: postemergence, visual rating, scale 0 (no effect) to 100 (complete control)
Procedure, shortened: as §3

[16] = test system: rice; experiment: Test B pre-/postemergence herbicide test; type: in vivo, Oryza sativa; conditions: preemergence
Procedure, shortened: as §3

[17] = test system: velvetleaf; experiment: Test B pre-/postemergence herbicide test; type: in vivo, Abutilon theophrasti; conditions: for Velvetleaf plant response rating: postemergence, visual rating, scale 0 (no effect) to 100 (complete control)
Procedure, shortened: as §3

[18] = test system: blackgrass; experiment: Test B postemergence herbicide test; type: in vivo, Alopecurus myosuroides; conditions: postemergence, visual rating, scale 0 (no effect) to 100 (complete control)
Procedure, shortened: (§4)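 Plants grow to 1- to 4-leaf stage (2–18 cm) for postemergence spraying, or to 2-leaf stage for the paddy test. Formulated compound is applied. Greenhouse holding lasts 13–15 days. Response is scored visually relative to controls, 0 no effect to 100 complete control; a dash means no result.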

[19] = test system: wheat; experiment: Test B postemergence herbicide test; type: in vivo, Triticum aestivum; set-up: key to Wheat plant response rating: 0 = no effect, 100 = complete control; conditions: postemergence, visual rating, scale 0 (no effect) to 100 (complete control)
Procedure, shortened: as §4

[20] = test system: wild oat; experiment: Test B postemergence herbicide test; type: in vivo, Avena fatua; conditions: postemergence, visual rating, scale 0 (no effect) to 100 (complete control)
Procedure, shortened: as §4

[21] = test system: rice; experiment: Test B flooded paddy test; type: in vivo, Oryza sativa; conditions: 1000 g ai/ha, visual rating, scale 0 to 100 (0 no effect, 100 complete control), 13 to 15 days
Procedure, shortened: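 Paddy species grown to the 2-leaf stage under flooding; blackgrass sprayed postemergence at 2–18 cm (1- to 4-leaf stage). Plants kept in a greenhouse for 13 to 15 days, then visually rated against controls on 0 (no effect) to 100 (complete control).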

[22] = test system: small flower umbrella sedge; experiment: Test B flooded paddy test; type: in vivo, Cyperus difformis; conditions: 1000 g ai/ha, visual rating, scale 0 to 100 (0 no effect, 100 complete control), 13 to 15 days
Procedure, shortened: as §4

[23] = test system: ducksalad; experiment: Test B flooded paddy test; type: in vivo, Heteranthera limosa; conditions: 1000 g ai/ha, visual rating, scale 0 to 100 (0 no effect, 100 complete control), 13 to 15 days
Procedure, shortened: as §4

[24] = test system: barnyardgrass; experiment: Test B flooded paddy test; type: in vivo, Echinochloa crus-galli; conditions: 1000 g ai/ha, visual rating, scale 0 to 100 (0 no effect, 100 complete control), 13 to 15 days
Procedure, shortened: as §4

[25] = Postemergence, 500 g ai/ha, 0 to 100 scale, 0 no effect, 100 complete control
[26] = Postemergence, 2000 g ai/ha, 0 to 100 scale, 0 no effect, 100 complete control
[27] = Preemergence, 2000 g ai/ha, visual rating, 0 to 100 scale (0 no effect, 100 complete control)
[28] = preemergence, 500 g ai/ha, visual injury, 0 to 100 scale (0 no effect, 100 complete control)
[29] = 125 g ai/ha, 0 = no effect, 100 = complete control, preemergence
[30] = 500 g ai/ha, visual rating 0-100, 0 no effect, 100 complete control, preemergence

CCOC(=O)c1cccc(NC(=O)c2sc(C(C)(C)C)nc2CC)c1 [Compound 204]
Barnyardgrass plant response rating [1, 25]: 25
Plant response rating, Barnyardgrass [1, 26]: 30
Barnyardgrass plant response rating [1, 27]: 5
Barnyardgrass plant response rating [1, 28]: 0
Crabgrass, Large plant response rating [2, 25]: 30
Plant response rating, Crabgrass, Large [2, 26]: 30
Crabgrass, Large plant response rating [2, 27]: 10
Crabgrass, Large plant response rating [2, 28]: 0
Foxtail, Giant plant response rating [3, 25]: 25
Plant response rating, Foxtail, Giant [3, 26]: 25
Foxtail, Giant plant response rating [3, 27]: 10
Foxtail, Giant plant response rating [3, 28]: 0
Morningglory plant response rating [4, 25]: 20
Plant response rating, Morningglory [4, 26]: 15
Morningglory plant response rating [4, 27]: 25
Morningglory plant response rating [4, 28]: 10
Pigweed plant response rating [5, 25]: 50
Plant response rating, Pigweed [5, 26]: 60
Pigweed plant response rating [5, 27]: 10
Pigweed plant response rating [5, 28]: 0
Velvetleaf plant response rating [6, 25]: 40
Plant response rating, Velvetleaf [6, 26]: 60
Velvetleaf plant response rating [6, 27]: 25
Velvetleaf plant response rating [6, 28]: 5
Barnyardgrass plant response rating (0 to 100 scale) [7, 29]: 0
Plant response rating, Barnyardgrass [7, 30]: 0
Barnyardgrass plant response rating ([7]; 125 g ai/ha): 10
Barnyardgrass plant response rating ([7]; 500 g ai/ha): 10
Surinam Grass plant response rating (0 to 100 scale) [8, 29]: 0
Plant response rating, Surinam Grass [8, 30]: 0
Surinam Grass plant response rating ([8]; 125 g ai/ha): 20
Surinam Grass plant response rating ([8]; 500 g ai/ha): 50
Cocklebur plant response rating (0 to 100 scale) [9, 29]: 0
Plant response rating, Cocklebur [9, 30]: 0
Cocklebur plant response rating ([9]; 125 g ai/ha): 90
Cocklebur plant response rating ([9]; 500 g ai/ha): 90
Corn plant response rating (0 to 100 scale) [10, 29]: 0
Plant response rating, Corn [10, 30]: 0
Corn plant response rating ([10]; 125 g ai/ha): 20
Corn plant response rating ([10]; 500 g ai/ha): 20
Crabgrass, Large plant response rating (0 to 100 scale) [11, 29]: 0
Plant response rating, Crabgrass, Large [11, 30]: 0
Crabgrass, Large plant response rating ([11]; 125 g ai/ha): 10
Crabgrass, Large plant response rating ([11]; 500 g ai/ha): 10
Foxtail, Giant plant response rating (0 to 100 scale) [12, 29]: 0
Plant response rating, Foxtail, Giant [12, 30]: 0
Foxtail, Giant plant response rating ([12]; 125 g ai/ha): 10
Foxtail, Giant plant response rating ([12]; 500 g ai/ha): 20
Lambsquarters plant response rating (0 to 100 scale) [13, 29]: 0
Plant response rating, Lambsquarters [13, 30]: 0
Lambsquarters plant response rating ([13]; 125 g ai/ha): 30
Lambsquarters plant response rating ([13]; 500 g ai/ha): 50
Plant response rating, Morningglory [14, 30]: 10
Morningglory plant response rating ([14]; 125 g ai/ha): 20
Morningglory plant response rating ([14]; 500 g ai/ha): 40
Pigweed plant response rating (0 to 100 scale) [15, 29]: 0
Plant response rating, Pigweed [15, 30]: 10
Pigweed plant response rating ([15]; 125 g ai/ha): 50
Pigweed plant response rating ([15]; 500 g ai/ha): 70
Rice plant response rating (0 to 100 scale) ([16]; 125 g ai/ha, 0 = no effect, 100 = complete control): 0
Plant response rating, Rice ([16]; 500 g ai/ha, visual rating 0-100, 0 no effect, 100 complete control): 0
Velvetleaf plant response rating (0 to 100 scale) [17, 29]: 0
Plant response rating, Velvetleaf [17, 30]: 0
Velvetleaf plant response rating ([17]; 125 g ai/ha): 60
Velvetleaf plant response rating ([17]; 500 g ai/ha): 70
Blackgrass plant response rating ([18]; 125 g ai/ha): 20
Blackgrass plant response rating ([18]; 500 g ai/ha): 20
Wheat plant response rating ([19]; 125 g ai/ha): 10
Wheat plant response rating ([19]; 500 g ai/ha): 30
Oat, Wild plant response rating ([20]; 125 g ai/ha): 10
Oat, Wild plant response rating ([20]; 500 g ai/ha): 20
Rice plant response rating [21]: 30
Sedge, Umbrella plant response rating [22]: 80
Ducksalad plant response rating [23]: 40
Barnyardgrass plant response rating [24]: 20
